# Reference: patent US20260240851A1, “Treatment of Parkinson's Disease in a Patient Using a Glucocerebrosidase Activator” (BIAL - R&D Investments, S.A., priority 2023, published 2026)
# Key:
# [1] = system: GluCer, GluSph and LacCer in PBMCs and plasma; test: LTI-291-004: glycolipid biomarkers; type: in vivo, human
# Procedure: (§1) This study was a Phase 1B, randomized, double-blind, placebo-controlled, multiple oral dose study of Compound A in 14 subjects (aged 51 to 81 years) with GBA-PD. The objectives of this study were to investigate the safety, tolerability, and PK of multiple once-daily oral administration of Compound A and to explore the accompanying pharmacodynamic changes. Subjects received once-daily oral doses of 10 mg (n=6) or 60 mg (2×30 mg capsules) (n=6) Compound A or placebo (n=2) for 28 consecutive days. PK samples were measured once on Day 7 and Day 14 and 4 times after the last dose on Day 28. Plasma concentrations were summarized at each time point, and no PK parameters were estimated. The PD evaluations included fMRI measures; FDG-PET to determine the metabolic rate of glucose in specific regions of the brain; and functional outcome measures (MDS-UPDRS Part III and the MMSE). GluCer, GluSph, and LacCer and other sphingolipids were measured in PBMCs and plasma as biomarkers of pharmacological effect.
# [2] = LTI-291-003: safety and tolerability; type: in vivo, human
# From the text: This study was a Phase 1b, randomized, double-blind, placebo-controlled, multiple oral dose study of Compound A in 40 subjects (aged 40 to 80 years) with GBA-PD. Approximately 50% of the enrolled subjects had major (loss of 30%-50% total activity) mutations in GCase and 50% had polymorphism mutation (loss of 10%-20% of total activity) mutations in GCase. The objectives of this study were to investigate the safety, tolerability, and PK of multiple once-daily oral administration of Compound A and to explore the accompanying pharmacodynamic changes in subjects with GBA-PD with major and polymorphism mutations. Subjects received once-daily oral doses of 10 mg (n=10), 30 mg (n=10), or 60 mg (2×30 mg capsules) (n=10) Compound A or placebo (n=10) for 28 consecutive days.
# [3] = LTI-291-001: CNS (NeuroCart) assessments; type: in vivo, human; conditions: single doses 3-90 mg, healthy subjects
# Procedure: The pharmacodynamic evaluations consisted of a battery of CNS (NeuroCart®) assessments, including Saccadic Eye Movements, Smooth Pursuit Eye Movements, Adaptive Tracking, Body Sway, Visual Verbal Learning Test, and EEG. GluCer was measured in plasma and PBMCs as a biomarker of pharmacological effect.
# [4] = BIA 28-6156-105: continuous cardiac monitoring, concentration-QTc analysis
# [5] = BIA 28-6156-110 DDI, rosuvastatin portion; type: in vivo, human; conditions: after 6 days of dosing with 60 mg, rosuvastatin portion
# Procedure: In Cohort 1, a single oral dose of 10 mg rosuvastatin was administered alone on Day 1. No drug was administered on Day 2. From Day 3 to Day 8, a single daily dose of 60 mg Compound A was administered.
# [6] = LTI-291-001: safety and tolerability; type: in vivo, human
# Procedure: This study was a first-in-human Phase 1, randomized, double-blind, placebo-controlled, single-ascending dose study to evaluate the safety and tolerability, PK, and PD of escalating single oral doses of Compound A (3, 10, 30, and 90 mg) in 4 cohorts of healthy subjects. A total of 32 subjects received a single oral dose of Compound A (8 per dose group) and 8 subjects received placebo. The effect of food on the PK of Compound A was evaluated by administering a second single oral dose of 10 mg Compound A to the subjects in Cohort 2 on a separate occasion, after subjects had completed a high-fat breakfast. Blood samples for Compound A PK were collected up to 48 hours after each dose.
# clinical = conditions: both, human, plasma, 60 mg; for AUC(0-t): Sinemet portion, geometric mean
# Procedure: This was a Phase 1, non-randomized, open-label, 2-cohort, cross-over, DDI study in healthy male and female subjects.
# In Cohort 1, a single oral dose 100 mg/25 mg levodopa-carbidopa (Sinemet®) IR was administered alone on Day 1.
# [7] = LTI-291-004: safety and tolerability; type: in vivo, human
# Procedure: as §1
smiles,measurement,setting,value
"CCCCCO[C@H]1CC[C@H](NC(=O)c2cnn3c(C)cc(C)nc23)CC1 [Compound A, 5,7-dimethyl-N-((1S*,4S)-4-(pentyloxy)cyclohexyl)pyrazolo[1,5-a]pyrimidine-3-carboxamide]",PBMC glycolipid levels,"[1]; 10 or 60 mg daily for 28 days, GBA-PD",Significant changes
same,Plasma LacCer,[1]; upon Compound A treatment,tended to decrease
same,plasma GluCer or GluSph,[1]; upon Compound A treatment,no effect was observed
same,"deaths, SAEs, severe AEs, discontinuations due to AEs","[2]; 10-60 mg daily for 28 days, GBA-PD","No deaths, other SAEs, severe AEs, or discontinuations due to AEs"
same,"vital signs, laboratory safety assessments, ECG parameters",[2]; 28 days,no clinically significant safety observations
same,"AE back pain, patients",[2]; all Compound A groups,13.3%
same,"AE fatigue, patients",[2]; all Compound A groups,16.7%
same,"AE headache, subjects",[2]; all Compound A groups,13.3%
same,"AE worsening of Parkinson's disease symptoms, subjects",[2]; all Compound A groups,13.3%
same,effects on CNS (Neurocart) tests,[3],no dose-dependent effects
same,effects on cardiac ECG parameters,[4]; doses of 60 and 150 mg,no clinically relevant effects
same,effect on ΔΔQTcF (concentration-QTc analysis),[4]; plasma concentrations of Compound A up to approximately 7150 ng/mL,≤ 10 ms
same,steady state concentrations of Compound A,[5],appeared not to have been reached
same,"AE fatigue, subjects",[6]; all Compound A groups,7.5%
same,"AE headache, subjects",[6]; all Compound A groups,12.5%
same,"AE somnolence, subjects",[6]; all Compound A groups,10%
same,"at least one AE in the GI system organ class, subjects",[6]; all Compound A groups,7.5%
same,"vital signs, laboratory safety assessments, ECG parameters",[6]; single doses,no clinically significant safety observations
same,"deaths, SAEs, severe AEs, discontinuations due to AEs",[6]; single doses 3-90 mg,"No deaths, other SAEs, severe AEs, or discontinuations due to AEs"
same,Cmax,clinical,1940 ng/mL
same,Tmax,clinical,2 h
same,AUC(0-t),"clinical; AUC0-24, 60 mg Compound A alone",22800 ng·h/mL
same,AUC(0-t),"clinical; AUC0-t, 60 mg Compound A alone",22700 ng·h/mL
same,"deaths, SAEs, severe AEs",[7]; 10 or 60 mg daily for 28 days,"No deaths, other SAEs, or severe AEs"
same,relatedness of AEs to study treatment,[7]; in vivo,None of the AEs were considered related to the study treatment
same,"vital signs, laboratory safety assessments, physical examinations, ECG parameters",[7]; in vivo,no clinically significant safety observations
